Key:
Type in all cases: functional, Homo sapiens
TERT-RPE1 = test: (§1) Here: values are normalized to the negative (DMSO; defined as 0% autophagy induction) and positive (250nM Torin1; mTOR inhibitor; defined as maximal inducer of autophagy = 100%) control compounds and represented as % of autophagy induction. […] The impact of autophagy induction on cells is complex and depends on the affected target. As such, the magnitude of a phenotype may not be equally mirrored in the %-value of autophagy induction and vice versa. The dynamics of the induction may indicate the mode of activation: e.g. activation via phosphorylation or a signaling cascade may occur fast, while activation via transcription factors may take considerably longer. […] Of note, treatment concentrations may be sub-optimal for specific compounds, leading to false negative annotations.; settings: Culturing Media DMEM/F12 (1:1), 1 % Penicillin/Streptomycin, 10% Fetal bovin serum Add-On: No, Screening Media Control DMEM/F12 (1:1), Screening Media Samples DMEM/F12 (1:1)
U2OS [1] = test: as §1; settings: Culturing Media DMEM, 1 % Penicillin/Streptomycin, 10% Fetal bovin serum Add-On: No, Screening Media Control DMEM, Screening Media Samples DMEM
U2OS [2] = test: as §1; settings: Culturing Media DMEM, 1 % Penicillin/Streptomycin, 10% Fetal bovin serum Add-On: No, Screening Media Control DMEM, Screening Media Samples DMEM; remark: listed apart in the source
[3] = Compound Concentration 0.5 uM, Timepoint 12 hours
[4] = Compound Concentration 0.5 uM, Timepoint 24 hours
[5] = Compound Concentration 0.5 uM, Timepoint 36 hours
[6] = Compound Concentration 0.5 uM, Timepoint 60 hours
[7] = Compound Concentration 2 uM, Timepoint 12 hours
[8] = Compound Concentration 2 uM, Timepoint 24 hours
[9] = Compound Concentration 2 uM, Timepoint 36 hours
[10] = Compound Concentration 2 uM, Timepoint 60 hours
[11] = Compound Concentration 10 uM, Timepoint 12 hours
[12] = Compound Concentration 10 uM, Timepoint 24 hours
[13] = Compound Concentration 10 uM, Timepoint 36 hours
[14] = Compound Concentration 10 uM, Timepoint 60 hours

Compound | autophagy induction (TERT-RPE1; [3]) | autophagy induction (TERT-RPE1; [4]) | autophagy induction (TERT-RPE1; [5]) | autophagy induction (TERT-RPE1; [6]) | autophagy induction (TERT-RPE1; [7]) | autophagy induction (TERT-RPE1; [8]) | autophagy induction (TERT-RPE1; [9]) | autophagy induction (TERT-RPE1; [10]) | autophagy induction (TERT-RPE1; [11]) | autophagy induction (TERT-RPE1; [12]) | autophagy induction (TERT-RPE1; [13]) | autophagy induction (TERT-RPE1; [14]) | autophagy induction (U2OS [1]; [3]) | autophagy induction (U2OS [1]; [4]) | autophagy induction (U2OS [1]; [5]) | autophagy induction (U2OS [1]; [6]) | autophagy induction (U2OS [1]; [7]) | autophagy induction (U2OS [1]; [8]) | autophagy induction (U2OS [1]; [9]) | autophagy induction (U2OS [1]; [10]) | further results
CCCCN(CCCC)C(=O)CN1C[C@@H](c2ccc3c(c2)OCO3)[C@H](C(=O)O)[C@H]1c1ccc(OC)cc1 | -5.689% | -7.876% | -10.2076% | -16.9579% | -2.05% | -6.33% | -9.375% | -15.3533% | 0.4134% | 0.2558% | -0.8322% | -6.302% | -1.434% | -1.039% | -0.6288% | -0.1138% | -9.274% | -4.861% | -2.29% | -1.949% | autophagy induction (U2OS [1]; [11]): 6.695%; autophagy induction (U2OS [1]; [12]): 2.81%; autophagy induction (U2OS [1]; [13]): 1.829%; autophagy induction (U2OS [1]; [14]): -0.9275%; autophagy induction (U2OS [2]; [3]): -15.0632%; autophagy induction (U2OS [2]; [4]): -6.645%; autophagy induction (U2OS [2]; [5]): -7.125%; autophagy induction (U2OS [2]; [6]): -16.2807%; autophagy induction (U2OS [2]; [7]): -9.31%; autophagy induction (U2OS [2]; [8]): -9.369%; autophagy induction (U2OS [2]; [9]): -11.2096%; autophagy induction (U2OS [2]; [10]): -4.989%; autophagy induction (U2OS [2]; [11]): 9.199%; autophagy induction (U2OS [2]; [12]): 8.705%; autophagy induction (U2OS [2]; [13]): 6.119%; autophagy induction (U2OS [2]; [14]): 4.931%
C/C(=N\NC(=O)[C@@H]1C(=O)NC[C@H]1c1ccccc1)c1cccc(Br)c1 | 3.657% | -1.179% | -5.656% | -7.294% | -6.467% | -9.581% | -11.1295% | -14.064% | -5.576% | -6.043% | -7.363% | -9.435% | -3.442% | 0.5164% | 1.385% | -0.9425% | -6.368% | -5.034% | -3.37% | -2.754% | autophagy induction (U2OS [1]; [11]): -1.379%; autophagy induction (U2OS [1]; [12]): -1.755%; autophagy induction (U2OS [1]; [13]): -0.957%; autophagy induction (U2OS [1]; [14]): -1.418%; autophagy induction (U2OS [2]; [3]): 9.666%; autophagy induction (U2OS [2]; [4]): 0.07709%; autophagy induction (U2OS [2]; [5]): 4.021%; autophagy induction (U2OS [2]; [6]): -3.426%; autophagy induction (U2OS [2]; [7]): -4.579%; autophagy induction (U2OS [2]; [8]): -6.454%; autophagy induction (U2OS [2]; [9]): -2.749%; autophagy induction (U2OS [2]; [10]): -11.0743%; autophagy induction (U2OS [2]; [11]): -8.587%; autophagy induction (U2OS [2]; [12]): 1.184%; autophagy induction (U2OS [2]; [13]): -3.458%; autophagy induction (U2OS [2]; [14]): -5.559%
